Experimental data published in patent publication US20220105150A1, “AMPHIPATHIC ALPHA-HELICAL ANTIMICROBIAL PEPTIDES TREAT INFECTIONS BY GRAM-NEGATIVE PATHOGENS” (priority 2019, published 2022).
Values after ≈ are worked out from the molar mass of the structure shown. Square brackets hold non-standard residues; d marks the D form. Peptide text beside a SMILES is read from it. Dab = NCC[C@H](N)C(=O)O

Test system: Acinetobacter baumannii strains resistant to Polymyxin B and Colistin
Details: strains resistant to Polymyxin B and Colistin, 24 h
Text: The coupling procedure used 5 equivalents of Fmoc-D-amino acid or Fmoc-L-amino acid and HCTU (O-(1H-6-chlorobenzotriazole-1-yl)-1,1,3,3-tetramethyluronium hexafluorophosphate) and 6-Cl-HOBt (1-hydroxy-6-chloro-benztriazole) at 4.5 equivalents in DMF (Fisher Scientific, Denver, Colo.) and N-diisopropylethylamine (DIPEA) 10 equivalents (Oakwood Products, Inc., Estill, S.C.) in N-methyl-2-pyrrolidinone (NMP) (Fisher Scientific, Denver, Colo.) with the first and second couplings at room temperature for 30 min each. The deprotection procedure (removal of Fmoc protecting group) was carried out by treatment of the resin with 0.1 M HOBt (1-hydroxybenzotriazole) in DMF with 20% piperidine for 30 min. […] The resin was removed by filtration and peptide was precipitated with ice-cooled ethyl ether on ice for 15 min. Ether was decanted, the peptide was washed twice with ether and redissolved in acetonitrile/water (1:1, with 0.2% TFA) and the solution lyophilized to obtain the crude peptide. • Analytical and Preparative Purification by Reversed-Phase Chromatography: Analytical RP-HPLC: Column, Luna C18 (2), 250×4.6 mm I.D., 5 μm particle size, 100 Å pore size from Phenomenex (Torrance, Calif.). Run conditions: linear AB gradient (1% acetonitrile/min, starting from 2% acetonitrile) at a flow-rate of 1 ml/min, where eluent A is 0.2% aq. TFA and eluent B is 0.18% TFA in acetonitrile; temperature, 30° C. Preparative RP-HPLC: Peptides were dissolved in 0.2% aq. TFA containing 2% acetonitrile to a final concentration of 10 mg/ml. Following filtration through a 0.45 μm Millipore filter and subsequently through a 0.22 μm filter, the peptide solutions were loaded onto the column via multiple 20-ml injections into a 20-ml injection loop at a flow-rate of 10 ml/min. Column, Luna C18 (2), 250×30 mm I.D., 5 um particle size, 100 Å pore size from Phenomenex. Run conditions: 2% acetonitrile/min gradient up to an acetonitrile concentration 10% below that required to elute the peptide during analytical RP-HPLC, then shallow gradient elution (0.05% or 0.1% acetonitrile/min depending on the complexity of impurities near the product of interest on the analytical run of the crude peptide) at a flow-rate of 10 ml/min (same eluents as shown above for analytical RP-HPLC); at room temperature. • Temperature Profiling of Peptides on Reversed-phase HPLC to Measure Dimerization and Oligomerization: Purified peptides were analyzed on an Agilent 1200 series liquid chromatograph for temperature profiling using a Zorbax 300 SB-C8 column (150 mm×2.1 mm I.D.; 5 μm particle size, 300 Å pore size) from Agilent Technologies. […] Temperature profiling was carried out on peptide mixtures run at each temperature in 2° C. increments from 5° C. to 41° C. and 10° C. increments from 5° C. to 75° C. Twenty minutes was allowed between runs for temperature equilibration. • Characterization of Helical Structure: The mean residue molar ellipticities of peptides were determined by circular dichroism (CD) spectroscopy, using a Jasco J-815 spectropolarimeter (Jasco Inc. Easton, Md., USA) at 5° C. under KP buffer (50 mM NaH2PO4/Na2HPO4/100 mM KCl, pH 7.0) as well as in the presence of an α-helix inducing solvent, 2,2,2-trifluoroethanol, TFE, (50 mM NaH2PO4/Na2HPO4/100 mM KCl, pH 7.0 buffer/50% TFE). A 10-fold dilution of an approximately 500 μM stock solution of the peptide analogs was loaded into a 0.1 cm quartz cell and its ellipticity scanned from 195 to 250 nm.

Row | MIC MB9941 [µM] | MIC MB9949 [µM] | MIC MB9951 [µM] | MIC MB9952 [µM] | MIC MB9953 [µM] | MIC MB9955 [µM] | MIC MB9963 [µM] | SMILES
1 | 0.7 (≈ 1.95 µg/mL) | 0.7 (≈ 1.95 µg/mL) | 0.7 (≈ 1.95 µg/mL) | 0.4 (≈ 1.11 µg/mL) | 0.4 (≈ 1.11 µg/mL) | 0.4 (≈ 1.11 µg/mL) | 0.4 (≈ 1.11 µg/mL) | CC(=O)N[C@H](CCCCN)C(=O)N[C@H](CC(C)C)C(=O)N[C@H](CCCN)C(=O)N[C@H](CO)C(=O)N[C@H](CC(C)C)C(=O)N[C@H](CC(C)C)C(=O)N[C@H](CCCN)C(=O)N[C@@H](C(=O)N[C@H](CC(C)C)C(=O)N[C@H](CO)C(=O)N[C@H](CCCN)C(=O)N[C@H](C)C(=O)N[C@H](CCCCN)C(=O)N[C@H](C)C(=O)N[C@H](C)C(=O)N[C@H](CCCCN)C(=O)N[C@H](CC(C)C)C(=O)N[C@H](CCCN)C(=O)N[C@@H](C(=O)N[C@H](CC(C)C)C(=O)N[C@H](CC(C)C)C(=O)N[C@H](CCCN)C(=O)N[C@H](C)C(=O)N[C@H](CC(C)C)C(=O)N[C@H](CO)C(=O)N[C@H](CCCN)C(N)=O)[C@H](C)O)[C@H](C)O [D85(Lys^1-6Orn-1), Ac-KL(Orn)SLL(Orn)TLS(Orn)AKAAKL(Orn)TLL(Orn)ALS(Orn)-amide]
2 | 1.3 (≈ 3.94 µg/mL) | 1.3 (≈ 3.94 µg/mL) | 0.7 (≈ 2.12 µg/mL) | 0.7 (≈ 2.12 µg/mL) | 0.7 (≈ 2.12 µg/mL) | 0.7 (≈ 2.12 µg/mL) | 0.7 (≈ 2.12 µg/mL) | CC(=O)N[C@H](CCCCN)C(=O)N[C@H](CC(C)C)C(=O)N[C@H](CCCNC(=N)N)C(=O)N[C@H](CO)C(=O)N[C@H](CC(C)C)C(=O)N[C@H](CC(C)C)C(=O)N[C@H](CCCNC(=N)N)C(=O)N[C@@H](C(=O)N[C@H](CC(C)C)C(=O)N[C@H](CO)C(=O)N[C@H](CCCNC(=N)N)C(=O)N[C@H](C)C(=O)N[C@H](CCCCN)C(=O)N[C@H](C)C(=O)N[C@H](C)C(=O)N[C@H](CCCCN)C(=O)N[C@H](CC(C)C)C(=O)N[C@H](CCCNC(=N)N)C(=O)N[C@@H](C(=O)N[C@H](CC(C)C)C(=O)N[C@H](CC(C)C)C(=O)N[C@H](CCCNC(=N)N)C(=O)N[C@H](C)C(=O)N[C@H](CC(C)C)C(=O)N[C@H](CO)C(=O)N[C@H](CCCNC(=N)N)C(N)=O)[C@H](C)O)[C@H](C)O [D87(Lys^1-6Arg-1), Ac-KL(Arg)SLL(Arg)TLS(Arg)AKAAKL(Arg)TLL(Arg)ALS(Arg)-amide]
3 | 0.7 (≈ 2.01 µg/mL) | 0.7 (≈ 2.01 µg/mL) | 0.3 (≈ 0.86 µg/mL) | 0.3 (≈ 0.86 µg/mL) | 0.3 (≈ 0.86 µg/mL) | 0.3 (≈ 0.86 µg/mL) | 0.4 (≈ 1.15 µg/mL) | CC(=O)N[C@H](CCCCN)C(=O)N[C@H](CC(C)C)C(=O)N[C@H](CCCCN)C(=O)N[C@H](CO)C(=O)N[C@H](CC(C)C)C(=O)N[C@H](CC(C)C)C(=O)N[C@H](CCCCN)C(=O)N[C@@H](C(=O)N[C@H](CC(C)C)C(=O)N[C@H](CO)C(=O)N[C@H](C)C(=O)N[C@H](C)C(=O)N[C@H](CCCCN)C(=O)N[C@H](CCCCN)C(=O)N[C@H](CCCCN)C(=O)N[C@H](CCCCN)C(=O)N[C@H](CC(C)C)C(=O)N[C@H](C)C(=O)N[C@@H](C(=O)N[C@H](CC(C)C)C(=O)N[C@H](CC(C)C)C(=O)N[C@H](CCCCN)C(=O)N[C@H](C)C(=O)N[C@H](CC(C)C)C(=O)N[C@H](CO)C(=O)N[C@H](CCCCN)C(N)=O)[C@H](C)O)[C@H](C)O [D88(Lys^1-6 Lys-2), Ac-KL(Lys)SLL(Lys)TLSAAK(Lys)(Lys)KLATLL(Lys)ALS(Lys)-amide] (Ac-[dK][dL][dK][dS][dL][dL][dK][dT][dL][dS][dA][dA][dK][dK][dK][dK][dL][dA][dT][dL][dL][dK][dA][dL][dS][dK]-NH2)
4 | 0.7 (≈ 1.89 µg/mL) | 0.7 (≈ 1.89 µg/mL) | 0.7 (≈ 1.89 µg/mL) | 0.7 (≈ 1.89 µg/mL) | 0.7 (≈ 1.89 µg/mL) | 0.7 (≈ 1.89 µg/mL) | 0.7 (≈ 1.89 µg/mL) | CC(=O)N[C@H](CCCCN)C(=O)N[C@H](CC(C)C)C(=O)N[C@@H](CCN)C(=O)N[C@H](CO)C(=O)N[C@H](CC(C)C)C(=O)N[C@H](CC(C)C)C(=O)N[C@@H](CCN)C(=O)N[C@@H](C(=O)N[C@H](CC(C)C)C(=O)N[C@H](CO)C(=O)N[C@H](C)C(=O)N[C@H](C)C(=O)N[C@H](CCCCN)C(=O)N[C@@H](CCN)C(=O)N[C@@H](CCN)C(=O)N[C@H](CCCCN)C(=O)N[C@H](CC(C)C)C(=O)N[C@H](C)C(=O)N[C@@H](C(=O)N[C@H](CC(C)C)C(=O)N[C@H](CC(C)C)C(=O)N[C@@H](CCN)C(=O)N[C@H](C)C(=O)N[C@H](CC(C)C)C(=O)N[C@H](CO)C(=O)N[C@@H](CCN)C(N)=O)[C@H](C)O)[C@H](C)O [D89(Lys^1-6 Dab-2), Ac-KL(L-Dab)SLL(L-Dab)TLSAAK(L-Dab)(L-Dab)KLATLL(L-Dab)ALS(L-Dab)-amide] (Ac-[dK][dL][Dab][dS][dL][dL][Dab][dT][dL][dS][dA][dA][dK][Dab][Dab][dK][dL][dA][dT][dL][dL][Dab][dA][dL][dS][Dab]-NH2)
5 | 0.7 (≈ 1.98 µg/mL) | 0.7 (≈ 1.98 µg/mL) | 0.7 (≈ 1.98 µg/mL) | 0.7 (≈ 1.98 µg/mL) | 0.7 (≈ 1.98 µg/mL) | 0.7 (≈ 1.98 µg/mL) | 0.7 (≈ 1.98 µg/mL) | CC(=O)N[C@H](CCCCN)C(=O)N[C@H](CC(C)C)C(=O)N[C@H](CCCCN)C(=O)N[C@H](CO)C(=O)N[C@H](CC(C)C)C(=O)N[C@H](CC(C)C)C(=O)N[C@H](CCCCN)C(=O)N[C@@H](C(=O)N[C@H](CC(C)C)C(=O)N[C@H](CO)C(=O)N[C@H](C)C(=O)N[C@H](C)C(=O)N[C@H](CCCCN)C(=O)N[C@H](CCCCN)C(=O)N[C@H](CCCCN)C(=O)N[C@H](CCCCN)C(=O)N[C@H](CC(C)C)C(=O)N[C@H](C)C(=O)N[C@@H](C(=O)N[C@H](CC(C)C)C(=O)N[C@H](CC(C)C)C(=O)N[C@H](CCCCN)C(=O)N[C@H](C)C(=O)N[C@H](CC(C)C)C(=O)N[C@H](CO)C(=O)N[C@H](CO)C(N)=O)[C@H](C)O)[C@H](C)O [D103(Lys^1Ser^26-5 Lys-2), Ac-KL(Lys)SLL(Lys)TLSAAK(Lys)(Lys)KLATLL(Lys)ALS(Ser)-amide] (Ac-[dK][dL][dK][dS][dL][dL][dK][dT][dL][dS][dA][dA][dK][dK][dK][dK][dL][dA][dT][dL][dL][dK][dA][dL][dS][dS]-NH2)
6 | 0.7 (≈ 1.88 µg/mL) | 0.7 (≈ 1.88 µg/mL) | 0.7 (≈ 1.88 µg/mL) | 0.7 (≈ 1.88 µg/mL) | 1.5 (≈ 4.03 µg/mL) | 0.7 (≈ 1.88 µg/mL) | 0.7 (≈ 1.88 µg/mL) | CC(=O)N[C@H](CCCCN)C(=O)N[C@H](CC(C)C)C(=O)N[C@@H](CCN)C(=O)N[C@H](CO)C(=O)N[C@H](CC(C)C)C(=O)N[C@H](CC(C)C)C(=O)N[C@@H](CCN)C(=O)N[C@@H](C(=O)N[C@H](CC(C)C)C(=O)N[C@H](CO)C(=O)N[C@H](C)C(=O)N[C@H](C)C(=O)N[C@H](CCCCN)C(=O)N[C@@H](CCN)C(=O)N[C@@H](CCN)C(=O)N[C@H](CCCCN)C(=O)N[C@H](CC(C)C)C(=O)N[C@H](C)C(=O)N[C@@H](C(=O)N[C@H](CC(C)C)C(=O)N[C@H](CC(C)C)C(=O)N[C@@H](CCN)C(=O)N[C@H](C)C(=O)N[C@H](CC(C)C)C(=O)N[C@H](CO)C(=O)N[C@H](CO)C(N)=O)[C@H](C)O)[C@H](C)O [D104(Lys^1Ser^26-5 Dab-2), Ac-KL(L-Dab)SLL(L-Dab)TLSAAK(L-Dab)(L-Dab)KLATLL(L-Dab)ALS(Ser)-amide] (Ac-[dK][dL][Dab][dS][dL][dL][Dab][dT][dL][dS][dA][dA][dK][Dab][Dab][dK][dL][dA][dT][dL][dL][Dab][dA][dL][dS][dS]-NH2)
